Data on three molecules can be found in PMC7612957 (Science (New York, N.Y.), 2020).

Entries after “also recorded” stand apart in the source; their conditions may differ. Like-named read-outs stand apart in the source and are kept apart here. Where no end group is shown, it is not given here.

Assay [1] has as its target T1, NRP1 b1 domain (Homo sapiens, UniProt O14786). Kind of assay: ITC binding to NRP1 b1 domain.
The target in assay [2] is T1, NRP1 b1 domain. Put plainly: ITC competition: EG00229 versus S1 CendR peptide for NRP1 b1. It counts as binding. The following applies: pre-incubation with EG00229, N=3.
Another assay has as its system SARS-CoV-2. It counts as cell-based.
A further assay deals with NRP1. The following applies: selective NRP1 antagonist, binds the b1 CendR binding pocket; ref [14]; cited from earlier work.
The target of assay [3] is T2, NRP1 b1 domain.
T2 chain: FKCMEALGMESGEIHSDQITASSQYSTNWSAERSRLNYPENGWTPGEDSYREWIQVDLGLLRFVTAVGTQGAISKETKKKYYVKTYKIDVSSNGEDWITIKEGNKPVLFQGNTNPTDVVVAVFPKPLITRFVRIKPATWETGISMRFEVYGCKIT
Kind of assay: ITC. (In general: ITC needs no label: the signal is the heat of the interaction.)

Assay [4] concerns the target T2, NRP1 b1 domain. Kind of assay: ITC.

`NC(N)=NCCC[C@H](NC(=O)c1sccc1NS(=O)(=O)c1cccc2nsnc12)C(=O)O` [EG00229]: the Kd on NRP1 b1 domain [1] (read-out: Kd for NRP1 b1 domain, EG00229, pH 5.5, N=3, fit with 1-to-1 ratio binding) was 11 µM; on NRP1 b1 domain [1] (read-out: Kd for NRP1 b1 domain, EG00229, pH 7.5, N=3, fit with 1-to-1 ratio binding), 5.1 µM. In addition, on NRP1 b1 domain [2], the “inhibition of S1 CendR peptide binding to b1” value is “blocks S1 CendR peptide binding; also recorded: inhibited the direct binding between b1 and the S1 CendR peptide”. Moreover, the “reduction of SARS-CoV-2 infection by EG00229” value with SARS-CoV-2 is “reduced the efficiency of SARS-CoV-2 infection”. Moreover, the “inhibition of VEGF-A binding” value with NRP1 is “inhibits VEGF-A binding”.
Consider NSPRRAR [S1 CendR peptide], for which the Kd on NRP1 b1 domain [1] (affinity for NRP1 b1 domain, pH 7.5, N=3, fit with 1-to-1 ratio binding) was 20.3 µM.

B1: S1 CendR peptide (679NSPRRAR685) (peptide)
peptide: NSPRRAR
Turning to B1, the Kd was 13 µM with NRP1 b1 domain [3] and 20.3 µM in the assay with NRP1 b1 domain [4].
